Source: patent US10370356B2, “Pyridinone dicarboxamide for use as bromodomain inhibitors” (GlaxoSmithKline Intellectual Property (No. 2) Limited, priority 2015, dated 2019)
Where a name gives a salt, the structure may show the parent alone. Read-outs that look alike come from different tables or passages of the source.

Target: T1, BRD4 BD2 (Homo sapiens, UniProt O60885, Y97A)
T1 construct: BRD4 (1-477) (Y97A) and (Y390A); made in house; host or cells: E. coli (pET15b vector)
Assay: BRD4 BD2 mutant TR-FRET competition assay
Format: binding

[1] = read-out: pIC50 in the BRD4 BD2 assay (converted)

Compound `CNC(=O)c1cc(C(=O)NCCC2CCCCN2)cn(Cc2ccccc2)c1=O` (stereo not shown) [Example 40, 1-Benzyl-N^3-methyl-2-oxo-N^5-(2-(piperidin-2-yl)ethyl)-1,2-dihydropyridine-3,5-dicarboxamide hydrochloride] has an IC50 [1] of 100 to 1000 nM.

In the case of `CNC(=O)c1cc(C(=O)NC2CCCS(=O)(=O)C2)cn(Cc2ccccc2)c1=O` (stereo not shown) [Example 42, 1-Benzyl-N^5-(1,1-dioxidotetrahydro-2H-thiopyran-3-yl)-N^3-methyl-2-oxo-1,2-dihdyropyridine-3,5-dicarboxamide], the IC50 [1] is reported as 1000 to 100000 nM.

Work on `CNC(=O)c1cc(C(=O)NC2CCS(=O)(=O)C2)cn(Cc2ccccc2)c1=O` (stereo not shown) [Example 43, 1-Benzyl-N^5-(1,1-dioxidotetrahydrothiophen-3-yl)-N^3-methyl-2-oxo-1,2-dihydroypridine-3,5-dicarboxamide] yielded an IC50 [1] of 100 to 1000 nM.

For `CNC(=O)c1cc(C(=O)NC2CCS(=O)(=O)CC2)cn(Cc2ccccc2)c1=O` [Example 44, 1-Benzyl-N^5-(1,1-dioxidotetrahydro-2H-thiopyran-4-yl)-N^3-methyl-2-oxo-1,2-dihydropyridine-3,5-dicarboxamide], the IC50 [1] was 100 to 1000 nM.

Compound `CNC(=O)c1cc(C(=O)NCCCN2CCCCC2)cn(Cc2ccccc2)c1=O` [Example 45, 1-Benzyl-N^3-methyl-2-oxo-N^5-(3-(piperidin-1-yl)propyl)-1,2-dihydropyridine-3,5-dicarboxamide hydrochloride] has an IC50 [1] of 100 to 1000 nM.

With `CNC(=O)c1cc(C(=O)NC[C@H]2CCCOC2)cn(Cc2ccccc2)c1=O` [Example 46, (R)-1-Benzyl-N^3-methyl-2-oxo-N^5-((tetrahydro-2H-pyran-3-yl)methyl)-1,2-dihydropyridine-3,5-dicarboxamide] the IC50 [1] was 100 to 1000 nM.

For `CNC(=O)c1cc(C(=O)NC[C@@H]2CCCOC2)cn(Cc2ccccc2)c1=O` [Example 47, (S)-1-Benzyl-N^3-methyl-2-oxo-N^5-((tetrahydro-2H-pyran-3-yl)methyl)-1,2-dihydropyridine-3,5-dicarboxamide], the IC50 [1] was 100 to 1000 nM.

In the case of `CNC(=O)c1cc(C(=O)NCC2CCS(=O)(=O)C2)cn(Cc2ccccc2)c1=O` (stereo not shown) [Example 48, 1-Benzyl-N^5-((1,1-dioxidotetrahydrothiophen-3-yl)methyl)-N^3-methyl-2-oxo-1,2-dihydropyridine-3,5-dicarboxamide], the IC50 [1] is reported as 1000 to 100000 nM.

`CNC(=O)c1cc(C(=O)NCC2CCOCC2)cn(Cc2ccccc2)c1=O` [Example 49, 1-Benzyl-N^3-methyl-2-oxo-N^5-((tetrahydro-2H-pyran-4-yl)methyl)-1,2-dihydroopyridine-3,5-dicarboxamide] was tested, and the IC50 [1] was 100 to 1000 nM.

For `CNC(=O)c1cc(C(=O)NC2CCCOC2)cn(Cc2ccccc2)c1=O` (stereo not shown) [Example 50, 1-Benzyl-N^3-methyl-2-oxo-N^5-(tetrahydro-2H-pyran-3-yl)-1,2-dihdyropyridine-3,5-dicarboxamide], the IC50 [1] was 100 to 1000 nM.

`CNC(=O)c1cc(C(=O)NCCCN2CCN(C)CC2)cn(Cc2ccccc2)c1=O` [Example 51, 1-Benzyl-N^3-methyl-N^5-(3-(4-methylpiperazin-1-yl)propyl)-2-oxo-1,2-dihydropyridine-3,5-dicarboxamide] gave an IC50 [1] of 100 to 1000 nM.

For `CNC(=O)c1cc(C(=O)NCCCN2CCS(=O)(=O)CC2)cn(Cc2ccccc2)c1=O` [Example 52, 1-Benzyl-N^5-(3-(1,1-dioxidothiomorpholino)propyl)-N^3-methyl-2-oxo-1,2-dihydropyridine-3,5-dicarboxamide], the IC50 [1] was 100 to 1000 nM.

Compound `CNC(=O)c1cc(C(=O)NCC2CCS(=O)(=O)CC2)cn(Cc2ccccc2)c1=O` [Example 53, 1-Benzyl-N^5-((1,1-dioxidotetrahydro-2H-thiopyran-4-yl)methyl)-N^3-methyl-2-oxo-1,2-dihydropyridine-3,5-dicarboxamide] has an IC50 [1] of 1000 to 100000 nM.

`CNC(=O)c1cc(C(=O)NCCC2CCNCC2)cn(Cc2cccc3[nH]ccc23)c1=O` [Example 56, 1-((1H-Indol-4-yl)methyl)-N^3-methyl-2-oxo-N5-(2-(piperidin-4-yl)ethyl)-1,2-dihydropyridine-3,5-dicarboxamide] was tested, and the IC50 (average of N recorded values, read-out: BRD4 BD2 IC50 (average value) (converted)) was 15.8 nM and the IC50 [1] was ≤ 100 nM.

In the case of `CNC(=O)c1cc(C(=O)NCCCC2(O)CCNCC2)cn(Cc2ccccc2)c1=O` [Example 57, 1-Benzyl-N^5-(3-(4-hydroxypiperidin-4-yl)propyl)-N^3-methyl-2-oxo-1,2-dihydropyridine-3,5-dicarboxamide], the IC50 [1] is reported as ≤ 100 nM.

For `CNC(=O)c1cc(C(=O)NCCCC2CCCN(C(=O)OC(C)(C)C)C2)cn(Cc2ccccc2)c1=O` (stereo not shown) [Example 59, tert-Butyl 3-(3-(1-benzyl-5-(methylcarbamoyl)-6-oxo-1,6-dihydropyridine-3-carboxamido)propyl)piperidine-1-carboxylate], the IC50 [1] was 100 to 1000 nM.

`CNC(=O)c1cc(C(=O)NCCCC2(F)CCNCC2)cn(Cc2ccccc2)c1=O` [Example 61, 1-Benzyl-N^5-(3-(4-fluoropiperidin-4-yl)propyl)-N^3-methyl-2-oxo-1,2-dihydropyridine-3,5-dicarboxamide hydrochloride] was tested, and the IC50 [1] was ≤ 100 nM.

`CNC(=O)c1cc(C(=O)NCCC2CN(C)CCO2)cn(Cc2ccccc2)c1=O` (stereo not shown) [Example 64, 1-benzyl-N^3-methyl-N^5-(2-(4-methylmorpholin-2-yl)ethyl)-2-oxo-1,2-dihydropyridine-3,5-dicarboxamide] was tested, and the IC50 [1] was 100 to 1000 nM.

`CNC(=O)c1cc(C(=O)NCCC2CN(C(C)=O)CCO2)cn(Cc2ccccc2)c1=O` (stereo not shown) [Example 65, N^5-(2-(4-acetylmorpholin-2-yl)ethyl)-1-benzyl-N^3-methyl-2-oxo-1,2-dihydropyridine-3,5-dicarboxamide] showed an IC50 [1] of 100 to 1000 nM.

`CNC(=O)c1cc(C(=O)NCCC2CNCCO2)cn(Cc2ccccc2)c1=O` (stereo not shown) [Example 66, 1-benzyl-N^3-methyl-N^5-(2-(morpholin-2-yl)ethyl)-2-oxo-1,2-dihydropyridine-3,5-dicarboxamide hydrochloride] was tested, and the IC50 [1] was 100 to 1000 nM.

With `CNC(=O)c1cc(C(=O)NCCOC2CCNC2)cn(Cc2ccccc2)c1=O` (stereo not shown) [Example 67, 1-benzyl-N3-methyl-2-oxo-N5-(2-(pyrrolidin-3-yloxy)ethyl)-1,2-dihydropyridine-3,5-dicarboxamide, hydrochloride] the IC50 [1] was 100 to 1000 nM.

Work on `CNC(=O)c1cc(C(=O)NCCOC2CCCNC2)cn(Cc2ccccc2)c1=O` (stereo not shown) [Example 68, 1-benzyl-N^3-methyl-2-oxo-N^5-(2-(piperidin-3-yloxy)ethyl)-1,2-dihydropyridine-3,5-dicarboxamide] yielded an IC50 [1] of 100 to 1000 nM.

In the case of `CNC(=O)c1cc(C(=O)N[C@H]2[C@@H]3COC[C@@H]32)cn(Cc2ccccc2)c1=O` [Example 69, 1-Benzyl-N^5-((1R,5S,6r)-3-oxabicyclo[3.1.0]hexan-6-yl)-N^3-methyl-2-oxo-1,2-dihydropyridine-3,5-dicarboxamide], the IC50 [1] is reported as ≤ 100 nM.

With `CNC(=O)c1cc(C(=O)NCCCC2CCCN(C)C2)cn(Cc2ccccc2)c1=O` (stereo not shown) [Example 70, 1-Benzyl-N^3-methyl-N^5-(3-(1-methylpiperidin-3-yl)propyl)-2-oxo-1,2-dihydropyridine-3,5-dicarboxamide] the IC50 [1] was ≤ 100 nM.

With `CNC(=O)c1cc(C(=O)NCCCC2CCCN(CCF)C2)cn(Cc2ccccc2)c1=O` (stereo not shown) [Example 71] the IC50 [1] was ≤ 100 nM.

For `CNC(=O)c1cc(C(=O)N[C@H]2[C@@H]3COC[C@@H]32)cn(Cc2cccc(OC)c2)c1=O` [Example 72, N5-((1R,5S,6r)-3-Oxabicyclo[3.1.0]hexan-6-yl)-1-(3-methoxybenzyl)-N^3-methyl-2-oxo-1,2-dihydropyridine-3,5-dicarboxamide], the IC50 [1] was ≤ 100 nM.

`CNC(=O)c1cc(C(=O)NCCCC2CCN(C(C)=O)CC2)cn(Cc2cccc3[nH]ccc23)c1=O` [Example 74] was tested, and the IC50 [1] was ≤ 100 nM.

`CNC(=O)c1cc(C(=O)N[C@H]2[C@@H]3CN(C(=O)OC(C)(C)C)C[C@@H]32)cn(Cc2ccccc2)c1=O` [Example 75, (1R,5S,6s)-Tert-butyl 6-(1-benzyl-5-(methylcarbamoyl)-6-oxo-1,6-dihydropyridine-3-carboxamido)-3-azabicyclo[3.1.0]hexane-3-carboxylate] was tested, and the IC50 [1] was ≤ 100 nM.

For `CNC(=O)c1cc(C(=O)N[C@H]2[C@@H]3CNC[C@@H]32)cn(Cc2ccccc2)c1=O` [Example 76, 1-Benzyl-N^5-((1R,5S,6s)-3-azabicyclo[3.1.0]hexan-6-yl)-N^3-methyl-2-oxo-1,2-dihydropyridine-3,5-dicarboxamide], the IC50 [1] was ≤ 100 nM.

`CCNC(=O)c1cc(C(=O)NCCCC2CCNCC2)cn(Cc2ccccc2)c1=O` [Example 78, 1-benzyl-N^3-ethyl-2-oxo-N^5-(3-(piperidin-4-yl)propyl)-1,2-dihydropyridine-3,5-dicarboxamide] was tested, and the IC50 [1] was 100 to 1000 nM.

In the case of `CNC(=O)c1cc(C(=O)N[C@H]2[C@@H]3CN(C(=O)OC(C)(C)C)C[C@@H]32)cn(Cc2cccc3[nH]ccc23)c1=O` [Example 79, (1R,5S,6s)-tert-Butyl 6-(1-((1H-indol-4-yl)methyl)-5-(methylcarbamoyl)-6-oxo-1,6-dihydropyridine-3-carboxamido)-3-azabicyclo[3.1.0]hexane-3-carboxylate], the IC50 [1] is reported as ≤ 100 nM.

With `CNC(=O)c1cc(C(=O)N[C@H]2[C@@H]3CNC[C@@H]32)cn(Cc2cccc3[nH]ccc23)c1=O` [Example 80] the IC50 [1] was ≤ 100 nM.

In the case of `CNC(=O)c1cc(C(=O)N[C@H]2[C@@H]3CN(C(C)=O)C[C@@H]32)cn(Cc2cccc3[nH]ccc23)c1=O` [Example 81, 1-((1H-Indol-4-yl)methyl)-N^5-((1R,5S,6s)-3-acetyl-3-azabicyclo[3.1.0]hexan-6-yl)-N^3-methyl-2-oxo-1,2-dihydropyridine-3,5-dicarboxamide], the IC50 [1] is reported as ≤ 100 nM.

For `CCNC(=O)c1cc(C(=O)NCCC[C@]2(F)CCCNC2)cn(Cc2ccccc2)c1=O` [Example 82], the IC50 [1] was ≤ 100 nM.

Work on `CCNC(=O)c1cc(C(=O)NCC[C@@H]2CNCCO2)cn(Cc2ccccc2)c1=O` [Example 83, (R)-1-benzyl-N^3-ethyl-N^5-(2-(morpholin-2-yl)ethyl)-2-oxo-1,2-dihydropyridine-3,5-dicarboxamide] yielded an IC50 [1] of 100 to 1000 nM.

With `CCNC(=O)c1cc(C(=O)NCCC[C@@H]2CNCCO2)cn(Cc2ccccc2)c1=O` [Example 84, (R)-1-benzyl-N^3-ethyl-N^5-(3-(morpholin-2-yl)propyl)-2-oxo-1,2-dihydropyridine-3,5-dicarboxamide] the IC50 [1] was ≤ 100 nM.
